# Assay results taken from patent US11116757B2 (priority 2015, dated 2021).
# Where two headings read alike, the source gives them in different places.
# Target: DCN1-UBC12 interaction (Homo sapiens (Human), UniProt Q96GG9)
# Experiment: biochemical
# Type: binding
# [1] = Table 6, commercial compounds, read-out: TR-FRET IC50
# [2] = Table 4, commercial compounds, read-out: TR-FRET IC50
# [3] = Table 7, commercial compounds, read-out: TR-FRET IC50
# DCN1-UBC12 interaction, sequence (Q96GG9 60-248 limits assumed): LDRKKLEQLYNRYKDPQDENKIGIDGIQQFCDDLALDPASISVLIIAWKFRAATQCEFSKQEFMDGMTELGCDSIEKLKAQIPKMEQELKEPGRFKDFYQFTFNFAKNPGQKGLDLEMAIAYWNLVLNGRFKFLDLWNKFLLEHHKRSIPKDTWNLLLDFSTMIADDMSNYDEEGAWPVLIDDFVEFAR
Structure (SMILES),IC50 (read-out: TR-FRET IC50),also measured
CCCC(C)N1CCC(N(Cc2ccccc2CNC(=O)CCl)C(=O)Nc2cccc(C(F)(F)F)c2)CC1 (centres unmarked) [drawing 848],0.154 µM,–
"O=C(Nc1cccc(C(F)(F)F)c1)NC1CCN(Cc2ccccc2Cl)CC1 [A292, 1-(1-(2-Chlorobenzyl)Piperidin-4-yl)-3-(3-(Trifluoromethyl)Phenyl)Urea]",> 77.3 µM,–
O=C(Nc1cccc(I)c1)NC1CCN(Cc2ccccc2)CC1 [B98],> 67.6 µM,–
"CCCN1CCC(N(CCOC)C(=O)Nc2cccc(C(F)(F)F)c2)CC1 [A248, 1-(2-Methoxyethyl)-1-(1-Propylpiperidin-4-yl)-3-(3-(Trifluoromethyl)Phenyl)Urea]",> 58.9 µM,–
CCCC(C)N1CCC(N(Cc2ccccc2)C(=O)Nc2ccc(C)cc2Cl)CC1 (centres unmarked) [A175],13.6 µM,–
COc1ccccc1NC(=O)N(Cc1ccc(C)o1)C1CCN(Cc2ccccc2)CC1 [B90],> 67.6 µM,–
O=C(c1ccc(F)cc1Cl)N1CCC(c2nc3ccccc3s2)CC1 [D5],18.2 µM,–
O=C(Nc1cc(F)cc(C(F)(F)F)c1)N(Cc1ccccc1)C1CCN(Cc2ccc[nH]2)CC1 [A215],> 23.4 µM,–
O=C(Nc1cc(F)cc(C(F)(F)F)c1)N(Cc1ccccc1)C1CCN(Cc2ccncc2)CC1 [A228],> 28.3 µM,–
Cc1ccc2[nH]c(C3CCN(Cc4cccc(C(F)(F)F)c4)CC3)nc2c1 [B19],< 0.004 µM,–
COCCN(C(=O)c1cnn(-c2nccc(-c3cccs3)n2)c1C)C(C)C [E45],–,IC50 [1]: > 67.6 µM
CCCC(C)N1CCC(N(Cc2cccc(CNC(=O)CCl)c2)C(=O)Nc2cccc(C(F)(F)F)c2)CC1 (centres unmarked) [A256],> 60.4 µM,–
C=CS(=O)(=O)NCCN(C(=O)Nc1cccc(C(F)(F)F)c1)C1CCN(C(C)CCC)CC1 (centres unmarked) [drawing 839],> 41 µM,–
CCc1cccc(NC(=O)C2CCN(C(=O)N3CC(CC)Oc4ccccc43)CC2)c1 (centres unmarked) [C56],–,IC50 [2]: > 67.6 µM
CCN1CCC(NC(=O)Nc2cc(Cl)ccc2Cl)CC1 [B54],> 67.6 µM,–
COC(=O)[C@@H]1C[C@@H](NC(=O)Nc2ccccc2)CN1Cc1ccccc1C(F)(F)F [B99],> 68 µM,–
CCCC(C)N1CCC(N(Cc2ccccc2)C(=O)Nc2ccccc2C(N)=O)CC1 (centres unmarked) [A257],> 61.8 µM,–
Cc1cccc(NC(=O)NC2CCN(Cc3ccccc3)CC2)c1 [B57],> 67.6 µM,–
Cc1cccc(C(=O)NC2C(=O)Nc3c(c(C)nn3C)C2c2ccc(F)c(Br)c2)c1 (centres unmarked) [F17],–,IC50 [3]: > 67.6 µM
"Cc1ccc(NC(=O)NC2CCN(Cc3ccccc3)CC2)cc1Cl [B59, 1-(1-Benzylpiperidin-4-yl)-3-(3-Chloro-4-Methylphenyl)Urea]",> 67.6 µM,–
CCCC(C)N1CCC(N(Cc2ccccc2)C(=O)Nc2cccc(F)c2F)CC1 (centres unmarked) [A162],8.22 µM,–
Cc1ccc(C(=O)N2CCC(C(=O)Nc3ccc(C)c(C)c3)CC2)cc1 [C25],–,IC50 [2]: > 67.6 µM

Structure (SMILES),IC50 (read-out: TR-FRET IC50),also measured
COc1cccc(NC(=O)C2CCN(C(=O)c3ccc(OC)c4ccccc34)CC2)c1 [C59],–,IC50 [2]: > 67.6 µM
CCCC(C)N1CCC(N(Cc2cccnc2)C(=O)Nc2cc(F)cc(C(F)(F)F)c2)CC1 (centres unmarked) [A39],0.213 µM,–
CCCCCCc1ccc(NC(=O)N(Cc2ccccc2)C2CCN(C(C)CCC)CC2)cc1 (centres unmarked) [A19],0.116 µM,–
COc1ccc(C(=O)N2CCC(C(=O)Nc3cccc([N+](=O)[O-])c3)CC2)c2ccccc12 [C60],–,IC50 [2]: > 67.6 µM
COc1ccc(CN(C(=O)Nc2cc(C)ccc2OC)C2CCN(C(C)=O)CC2)cc1 [B87],> 67.6 µM,–
CCCC(C)N1CCC(N(Cc2ccccc2)C(=O)Nc2cccc(N3CCOCC3)c2)CC1 (centres unmarked) [A297],> 83.6 µM,–
CCCC(C)N1CCC(N(Cc2ccccc2)C(=O)Nc2ccccc2Sc2ccccc2)CC1 (centres unmarked) [A303],> 89.9 µM,–
CCCC(C)N1CCC(N(Cc2ccccc2)C(=O)NCc2ccc(N)cc2)CC1 (centres unmarked) [A233],> 39.4 µM,–
CCCC(C)N1CCC(N(Cc2ccccc2)C(=O)Nc2ccc(Cl)c(Cl)c2)CC1 (centres unmarked) [A46],0.257 µM,–
CCCC(C)N1CCC(N(Cc2ccccc2)C(=O)Nc2ccc(NC(C)=O)cc2)CC1 (centres unmarked) [A291],> 77.1 µM,–
O=C(Nc1ccc2c(c1)OC(F)(F)O2)NC1CCN(C(=O)c2ccccc2)CC1 [B114],> 74.1 µM,–
C=CC(=O)NCc1cccc(CN(C(=O)Nc2cccc(C(F)(F)F)c2)C2CCN(C(C)CCC)CC2)c1 (centres unmarked) [drawing 845],0.018 µM,–
CCN1CCN(C(=O)c2cnn(-c3nccc(-c4cccs4)n3)c2C)CC1 [E23],–,IC50 [1]: 57.9 µM
CCCC(C)N1CCC(N(Cc2ccccc2)C(=O)Nc2ccc(Br)cc2)CC1 (centres unmarked) [A5],0.0559 µM,–
CCCCN1CCC(N(Cc2ccccc2)C(=O)Nc2ccc(F)c(Cl)c2)CC1 [A89],1.09 µM,–
CCCC(C)N1CCC(N(Cc2ccccc2)C(=O)Nc2cccc(Cc3ccccc3)c2)CC1 (centres unmarked) [A23],0.14 µM,–
CCCC(C)N1CCC(N(Cc2ccccc2)C(=O)Nc2ccc3ccccc3c2)CC1 (centres unmarked) [A10],0.0789 µM,–
CN(C)c1ccc(CN2CCC(N(Cc3ccccc3)C(=O)Nc3cc(F)cc(C(F)(F)F)c3)CC2)c2ccccc12 [A204],> 20.2 µM,–
C=CCN(CC=C)C(=O)c1cnn(-c2nccc(-c3cccs3)n2)c1COC [E39],–,IC50 [1]: > 67.6 µM
COc1ccc(C(=O)N2CCC(c3nc4ccccc4s3)CC2)cc1OC [D19],> 62.9 µM,–
O=C(Nc1ccc(Br)cc1Cl)NC1CCN(Cc2ccccc2)CC1 [B50],> 67.6 µM,–
CCCC(C)N1CCC(N(Cc2ccccc2)C(=O)Nc2cccc(C(C)(C)C)c2)CC1 (centres unmarked) [A140],4.2 µM,–

Structure (SMILES),IC50 (read-out: TR-FRET IC50),also measured
FC(F)(F)c1cccc(CNC2CCN(Cc3ccccc3)CC2)c1 [B32],> 55.3 µM,–
CCCC(C)N1CCC(N(Cc2ccccc2)C(=O)Nc2ccc(Cl)cc2C#N)CC1 (centres unmarked) [A141],4.22 µM,–
CCCC(C)N1CCC(N(Cc2ccccc2)C(=O)Nc2nc3c(OC)cccc3s2)CC1 (centres unmarked) [A301],> 86.1 µM,–
CCc1cccc(NC(=O)C2CCN(C(=O)c3cnn(-c4ccccc4)c3-n3cccc3)CC2)c1 [C69],–,IC50 [2]: > 81.4 µM
CCCC(C)N1CCC(N(Cc2ccccc2)C(=O)Nc2ccccc2I)CC1 (centres unmarked) [A285],> 72.4 µM,–
CCCC(C)N1CCC(N(Cc2ccccc2)C(=O)Nc2cc(C(F)(F)F)ccc2Cl)CC1 (centres unmarked) [A101],1.6 µM,–
COCC(=O)N1CCC(C(=O)Nc2ccc(-c3cc4ccccc4[nH]3)cc2)CC1 [C46],–,IC50 [2]: > 67.6 µM
O=C(Nc1cc(F)cc(C(F)(F)F)c1)N(Cc1ccccc1)C1CCN(Cc2cncn2Cc2ccccc2)CC1 [A208],> 21.1 µM,–
CCN(CC)CCNC(=O)c1cnn(-c2nccc(-c3cccs3)n2)c1C1CC1 [E36],–,IC50 [1]: > 67.6 µM
CCOc1ccc(C2c3c(C)nn(C)c3NC(=O)C2NC(=O)c2ccc(Cl)cc2)cc1OC (centres unmarked) [F25],–,IC50 [3]: > 67.6 µM
CCCC(C)N1CCC(N(Cc2ccccc2)C(=O)Nc2ccc(Cl)c(F)c2)CC1 (centres unmarked) [A49],0.265 µM,–
CC1CN(Cc2ccccc2)CC(C)C1NC(=O)Nc1nccs1 (centres unmarked) [B9],18.6 µM,–
CC(c1ccc2c(c1)OCO2)N1CCC(N(Cc2ccccc2)C(=O)Nc2cc(F)cc(C(F)(F)F)c2)CC1 (centres unmarked) [A128],2.39 µM,–
Cc1ccc(NC(=O)C2CCN(C(=O)c3ccc(Cl)cc3)CC2)cc1Cl [C6],–,IC50 [2]: 38.1 µM
"CCCN1CCC(N(CC(C)C)C(=O)Nc2cccc(C(F)(F)F)c2)CC1 [A146, 1-Isobutyl-1-(1-Propylpiperidin-4-yl)-3-(3-(Trifluoromethyl)Phenyl)Urea]",4.81 µM,–
CCCC(C)N1CCC(N(Cc2ccccc2)C(=O)Nc2ccccc2CC)CC1 (centres unmarked) [A270],> 67.3 µM,–
CCCC(C)N1CCC(N(Cc2ccccc2)C(=O)Nc2ccc(F)c(Cl)c2)CC1 (centres unmarked) [A53],0.287 µM,–
CCN1CCN(C(=O)c2cnn(-c3nccc(-c4cccs4)n3)c2C2CC2)CC1 [E14],–,IC50 [1]: 29.9 µM
CCCC(C)N1CCC(N(Cc2ccccc2)C(=O)Nc2ccc(Cl)c([N+](=O)[O-])c2)CC1 (centres unmarked) [A11],0.0818 µM,–
CCOc1ccccc1NC(=O)N(Cc1ccc(C)o1)C1CCN(Cc2ccccc2)CC1 [B92],> 67.6 µM,–
Cc1c(C(=O)N(C)CC(C)C)cnn1-c1nccc(-c2cccs2)n1 [E6],–,IC50 [1]: 18.8 µM
"COc1ccc(C(=O)N2CCC(C(=O)Nc3cccc(C(F)(F)F)c3)CC2)cc1 [C1, 1-(4-Methoxybenzoyl)-N-(3-(Trifluoromethyl)Phenyl)Piperidine-4-Carboxamide]",–,IC50 [2]: 8.07 µM

Structure (SMILES),IC50 (read-out: TR-FRET IC50),also measured
CCN1CCC(N(Cc2ccco2)C(=O)Nc2ccc(Br)c(C)c2)CC1 [B2],3 µM,–
CC(C1CCCC1)N1CCC(N(Cc2ccccc2)C(=O)Nc2cc(F)cc(C(F)(F)F)c2)CC1 (centres unmarked) [A279],> 7.78 µM,–
Cc1cc(C)n(-c2ccc(NC(=O)C3CCN(C(=O)CC(F)(F)F)CC3)cc2)n1 [C34],–,IC50 [2]: > 67.6 µM
CCCC(C)N1CCC(N(Cc2ccccc2NC(=O)CCl)C(=O)Nc2cccc(C(F)(F)F)c2)CC1 (centres unmarked) [drawing 843],0.208 µM,–
CCN(CC)C(=O)c1cnn(-c2nccc(-c3cccs3)n2)c1C1CC1 [E61],–,IC50 [1]: > 71.6 µM
CCCC(C)N1CCC(N(Cc2ccccc2)C(=O)Nc2ccc(OC)cc2F)CC1 (centres unmarked) [A290],> 74 µM,–
CCCC(C)N1CCC(N(Cc2ccccc2)C(=O)Nc2ccc(Cl)cc2)CC1 (centres unmarked) [A13],–,IC50 (TR-FRET IC50): 0.083 µM
CCCOc1ccc(C2c3c(C)nn(C)c3NC(=O)C2NC(=O)c2cccc(C)c2)cc1OC (centres unmarked) [F22],–,IC50 [3]: > 67.6 µM
CCCC(C)N1CCC(N(CCCNC(=O)CCl)C(=O)Nc2cccc(C(F)(F)F)c2)CC1 (centres unmarked) [drawing 836],> 53 µM,–
C=CC(=O)NCc1ccccc1CN(C(=O)Nc1cccc(C(F)(F)F)c1)C1CCN(C(C)CCC)CC1 (centres unmarked) [A239],> 51.2 µM,–
CC1CN(Cc2ccccc2)CCC1N(C)C(=O)Nc1cn[nH]c1 (centres unmarked) [B24],> 15.2 µM,–
CC(N1CCC(N(Cc2ccccc2)C(=O)Nc2cccc(C(F)(F)F)c2)CC1)C(F)(F)F (centres unmarked) [A223],> 25.3 µM,–
COc1ccc(C2c3c(C)nn(C)c3NC(=O)C2NC(=O)c2ccc(Cl)cc2)cc1F (centres unmarked) [F31],–,IC50 [3]: > 67.6 µM
Cc1cccc(C(=O)NC2C(=O)Nc3c(c(C)nn3C)C2c2cccc(C)c2)c1 (centres unmarked) [F32],–,IC50 [3]: > 67.6 µM
C=CCNC(=O)c1cnn(-c2ncc(C)c(-c3cccs3)n2)c1C [E59],–,IC50 [1]: > 67.6 µM
CCc1ccccc1NC(=O)NC1CCN(Cc2ccccc2)CC1 [B53],> 67.6 µM,–
COc1ccc(NC(=O)C2CCN(C(=O)N3CCOc4ccccc43)CC2)cc1 [C53],–,IC50 [2]: > 67.6 µM
CCN(CC)CCNC(=O)c1cnn(-c2ncc(C)c(-c3cccs3)n2)c1C1CC1 [E28],–,IC50 [1]: > 37.4 µM
CCCCN1CCC(N(Cc2ccccc2)C(=O)Nc2cccc(C(F)(F)F)c2F)CC1 [A70],0.583 µM,–
O=C(Nc1ccc(CN2CCCC2)cc1)Nc1cccc(C(F)(F)F)c1 [B105],> 71.3 µM,–
